Reference: patent publication US20220048895A1, “SUBSTITUTED BENZAZEPINE COMPOUNDS, CONJUGATES, AND USES THEREOF” (SILVERBACK THERAPEUTICS, INC., priority 2018, published 2022)

Each compound was assayed on Human peripheral blood mononuclear cells (PBMC) (assay: PBMC screening assay: TNF-α in supernatant by ELISA or HTRF). Conditions: TNF-α activity in supernatant of human PBMC, 24 hours incubation, 1000 to 0.000238 nM.
Format: cell-based
Method: Materials and general procedures. Human peripheral blood mononuclear cells (PBMC) were obtained from BenTek, frozen at 25×10^6 cell/mL in 10% DMSO (Sigma) prepared in fetal bovine serum (Gibco) and stored in liquid nitrogen. For the culture, PBMC were thawed quickly in a 37° C. water bath and diluted into pre-warmed RPMI 1640 (Lonza) supplemented with 10% fetal bovine serum, 2 mM glutamine, […] (all from Gibco) and centrifuged for 5 minutes at 500×g. PBMC were suspended into the growth media described above and cultured at a concentration of 1×10^6 cells per mL at 37° C. in a 5% CO2 incubator.
General procedure for in vitro small molecule screening. PBMC were thawed, suspended at a concentration of 1×10^6 cell/mL in growth media and 200 μL was aliquoted into each well of a 96-well plate for a total of 0.2×10^6 cells per well. PBMC were incubated for approximately 16-18 hours at 37° C. in a 5% CO2 humidified incubator. PBMC plates were centrifuged at 500×g for 5 minutes and the growth media was removed. 150 μL of twelve concentrations ranging from 1000 to 0.000238 nM of small molecules prepared in growth media were added to PBMC in duplicate and incubated for 24 hours at 37° C. in a 5% CO2 incubator. Prior to supernatant harvest, cells were spun at 500×g for 5 minutes to remove cell debris. TNF-α activity was assessed in the supernatant by ELISA (eBioscience) or HTRF (CisBio) per the manufacturer's instructions. The optical density at 450 nm and 570 nm (ELISA) or […] (HTRF) was analyzed using an Envision (Perkin Elmer) plate reader, as shown in Table 2.

Q: `CCCN(CCC)C(=O)C1=Cc2ccc(-c3ccc(C(=O)N4CCC(CO)(c5ccccc5)CC4)cc3)cc2N=C(N)C1` [Compound 1.7, 2-amino-8-(4-(4-(hydroxymethyl)-4-phenylpiperidine-1-carbonyl)phenyl)-N,N-dipropyl-3H-benzo[b]azepine-4-carboxamide] was tested. Which EC50 did it give?
A: The EC50 was greater than 500 nM.

Q: For `CCCN(CCC)C(=O)C1=Cc2ccc(-c3ccc(C(=O)N4CCN[C@@H](c5ccccc5)C4)cc3)cc2N=C(N)C1` [Compound 1.3, (S)-2-amino-8-(4-(3-phenylpiperazine-1-carbonyl)phenyl)-N,N-dipropyl-3H-benzo[b]azepine-4-carboxamide], which EC50 is on record?
A: Its EC50 is less than 50 nM.

Q: `CCCN(CCC)C(=O)C1=Cc2ccc(-c3ccc(C(=O)N4CCN[C@H](c5ccccc5)C4)cc3)cc2N=C(N)C1` [Compound 1.2, (R)-2-amino-8-(4-(3-phenylpiperazine-1-carbonyl)phenyl)-N,N-dipropyl-3H-benzo[b]azepine-4-carboxamide] was tested. Which EC50 did it give?
A: Its EC50 is less than 50 nM.

Q: `CCCN(CCC)C(=O)C1=Cc2ccc(-c3ccc(C(=O)N4CCCC4c4ccccc4)cc3)cc2N=C(N)C1` (centres unmarked) [Compound 1.10, 2-amino-8-(4-(2-phenylpyrrolidine-1-carbonyl)phenyl)-N,N-dipropyl-3H-benzo[b]azepine-4-carboxamide] was tested. Which EC50 did it give?
A: Its EC50 is 50 to 500 nM.

Q: For `CCCN(CCC)C(=O)C1=Cc2ccc(-c3ccc(C(=O)N4CCc5ccccc5C4)cc3)cc2N=C(N)C1` [Compound 1.8, 2-amino-N,N-dipropyl-8-(4-(1,2,3,4-tetrahydroisoquinoline-2-carbonyl)phenyl)-3H-benzo[b]azepine-4-carboxamide], which EC50 is on record?
A: The EC50 was greater than 500 nM.

Q: How did the EC50 turn out when `CCCN(CCC)C(=O)C1=Cc2ccc(-c3ccc(C(=O)N4CCC(O)(c5ccccc5)CC4)cc3)cc2N=C(N)C1` [Compound 1.5, 2-amino-8-(4-(4-hydroxy-4-phenylpiperidine-1-carbonyl)phenyl)-N,N-dipropyl-3H-benzo[b]azepine-4-carboxamide] was run?
A: Its EC50 is 50 to 500 nM.

Q: For `CCCN(CCC)C(=O)C1=Cc2ccc(-c3ccc(C(=O)N4CCN(c5ccccc5)CC4)cc3)cc2N=C(N)C1` [Compound 1.4, 2-amino-8-(4-(4-phenylpiperazine-1-carbonyl)phenyl)-N,N-dipropyl-3H-benzo[b]azepine-4-carboxamide], which EC50 is on record?
A: The EC50 was 50 to 500 nM.

Q: How did the EC50 turn out when `CCCN(CCC)C(=O)C1=Cc2ccc(-c3ccc(C(=O)N4CCNC(c5ccccc5)C4)cc3)cc2N=C(N)C1` (centres unmarked) [Compound 1.1, 2-amino-8-(4-(3-phenylpiperazine-1-carbonyl)phenyl)-N,N-dipropyl-3H-benzo[b]azepine-4-carboxamide] was run?
A: Its EC50 is less than 50 nM.

Q: With `CCCN(CCC)C(=O)C1=Cc2ccc(-c3ccc(C(=O)N4CCCC4CO)cc3)cc2N=C(N)C1` (centres unmarked) [Compound 1.11, 2-amino-8-(4-(2-(hydroxymethyl)pyrrolidine-1-carbonyl)phenyl)-N,N-dipropyl-3H-benzo[b]azepine-4-carboxamide] as the compound, how does the EC50 read?
A: Its EC50 is 50 to 500 nM.

Q: How did the EC50 turn out when `CCCN(CCC)C(=O)C1=Cc2ccc(-c3ccc(C(=O)N4CCC(O)(c5ccccc5)C4)cc3)cc2N=C(N)C1` (centres unmarked) [Compound 1.9, 2-amino-8-(4-(3-hydroxy-3-phenylpyrrolidine-1-carbonyl)phenyl)-N,N-dipropyl-3H-benzo[b]azepine-4-carboxamide] was run?
A: The EC50 was 50 to 500 nM.

Q: With `CCCN(CCC)C(=O)C1=Cc2ccc(-c3ccc(C(=O)N4CCCC(CO)C4)cc3)cc2N=C(N)C1` (centres unmarked) [Compound 1.6, 2-amino-8-(4-(3-(hydroxymethyl)piperidine-1-carbonyl)phenyl)-N,N-dipropyl-3H-benzo[b]azepine-4-carboxamide] as the compound, how does the EC50 read?
A: The EC50 was 50 to 500 nM.
